Measurements as given in the NIST ThermoML archive (doi:10.1021/je800110r).

Settings: Liquid, Vibrating tube method

CCCCCCCCCC [decane]
Settings	mass density [kg/m3]
323.14 K, 21395 kPa	724.8
323.14 K, 21420 kPa	724.9
323.14 K, 21444 kPa	724.9
323.14 K, 21473 kPa	724.8
323.14 K, 21501 kPa	724.8
323.14 K, 21526 kPa	725
323.14 K, 21647 kPa	725
323.14 K, 22710 kPa	725.7
323.14 K, 22733 kPa	725.8
323.14 K, 22768 kPa	725.8
323.14 K, 22800 kPa	725.9
323.14 K, 22832 kPa	725.9
323.14 K, 22860 kPa	725.9
323.14 K, 22884 kPa	725.9
323.14 K, 22916 kPa	725.8
323.14 K, 22948 kPa	726
323.14 K, 22977 kPa	726.1
323.14 K, 23013 kPa	726
323.14 K, 23034 kPa	726.1
323.14 K, 23071 kPa	726.1
323.14 K, 23103 kPa	726.1
323.14 K, 23124 kPa	726.1
323.14 K, 23149 kPa	726.2
323.14 K, 23170 kPa	726.2
323.14 K, 23191 kPa	726.2
323.14 K, 23219 kPa	726.2
323.14 K, 23256 kPa	726.1
323.14 K, 23294 kPa	726.2
323.14 K, 23332 kPa	726.3
323.14 K, 23357 kPa	726.2
323.14 K, 23391 kPa	726.2
323.14 K, 23412 kPa	726.2
323.14 K, 23442 kPa	726.3
323.14 K, 23475 kPa	726.4
323.14 K, 23509 kPa	726.3
323.14 K, 23539 kPa	726.3
323.14 K, 23578 kPa	726.5
323.14 K, 23612 kPa	726.3
323.14 K, 23710 kPa	726.6
323.14 K, 23736 kPa	726.5
323.14 K, 23762 kPa	726.5
323.14 K, 23806 kPa	726.6
323.14 K, 23832 kPa	726.7
323.14 K, 23854 kPa	726.6
323.14 K, 23881 kPa	726.6
323.14 K, 23912 kPa	726.7
323.14 K, 23938 kPa	726.7
323.14 K, 23970 kPa	726.7
323.14 K, 23996 kPa	726.7
323.14 K, 24633 kPa	727.3
323.14 K, 24707 kPa	727.3
323.14 K, 24732 kPa	727.3
323.14 K, 24765 kPa	727.4
323.14 K, 24799 kPa	727.2
323.14 K, 24832 kPa	727.4
323.14 K, 24861 kPa	727.4
323.14 K, 24899 kPa	727.4
323.14 K, 24942 kPa	727.4
323.14 K, 24979 kPa	727.4
323.14 K, 25000 kPa	727.5
323.14 K, 25022 kPa	727.4
323.14 K, 25061 kPa	727.6
323.14 K, 25103 kPa	727.6
323.14 K, 25129 kPa	727.5
323.14 K, 25160 kPa	727.6
323.14 K, 25190 kPa	727.7
323.14 K, 25216 kPa	727.6
323.14 K, 25251 kPa	727.7
323.14 K, 25291 kPa	727.6
323.14 K, 25325 kPa	727.7
323.14 K, 25361 kPa	727.8
323.14 K, 25383 kPa	727.8
323.14 K, 25422 kPa	727.7
323.14 K, 25458 kPa	727.8
323.14 K, 25493 kPa	727.9
323.14 K, 25521 kPa	727.8
323.14 K, 25556 kPa	727.8
323.14 K, 25593 kPa	727.9
323.14 K, 25624 kPa	727.9
323.14 K, 25670 kPa	727.9
323.14 K, 25706 kPa	728
323.14 K, 25742 kPa	727.9
323.14 K, 25783 kPa	728
323.14 K, 25828 kPa	728
323.14 K, 26192 kPa	728.4
323.14 K, 26343 kPa	728.4
323.14 K, 26723 kPa	728.6
323.14 K, 26758 kPa	728.8
323.14 K, 26793 kPa	728.7
323.14 K, 26842 kPa	728.8
323.14 K, 26872 kPa	728.8
323.14 K, 26912 kPa	728.8
323.14 K, 26952 kPa	728.8
323.14 K, 26992 kPa	728.9
323.14 K, 27043 kPa	729
323.14 K, 27362 kPa	729.1
323.14 K, 27409 kPa	729.2
323.14 K, 27440 kPa	729.2
323.14 K, 27472 kPa	729.2
323.14 K, 27524 kPa	729.4
323.14 K, 27568 kPa	729.3
323.14 K, 27605 kPa	729.3
323.14 K, 27657 kPa	729.4
323.14 K, 27684 kPa	729.3
323.14 K, 27758 kPa	729.5
323.14 K, 27796 kPa	729.5
323.14 K, 27882 kPa	729.5
323.14 K, 27920 kPa	729.5
323.14 K, 27958 kPa	729.5
323.14 K, 27997 kPa	729.6
323.14 K, 28042 kPa	729.7
323.14 K, 28096 kPa	729.7
323.14 K, 28135 kPa	729.7
323.14 K, 28185 kPa	729.7
323.14 K, 28230 kPa	729.8
323.14 K, 28317 kPa	729.9
323.14 K, 28358 kPa	729.8
323.14 K, 28393 kPa	729.7
323.14 K, 28457 kPa	730.1
323.14 K, 28496 kPa	730
323.14 K, 28541 kPa	730
323.14 K, 28571 kPa	730.1
323.14 K, 28605 kPa	730
323.14 K, 28640 kPa	730.1
323.14 K, 28675 kPa	730.1
323.14 K, 28714 kPa	730.1
323.14 K, 28744 kPa	730.2
323.14 K, 28779 kPa	730.1
323.14 K, 28819 kPa	730.2
323.14 K, 28844 kPa	730.2
323.14 K, 28887 kPa	730.3
323.14 K, 28913 kPa	730.3
323.14 K, 28938 kPa	730.2
323.14 K, 28968 kPa	730.3
323.14 K, 28999 kPa	730.4
323.14 K, 29030 kPa	730.4
323.14 K, 29065 kPa	730.4
323.14 K, 29147 kPa	730.4
323.14 K, 29286 kPa	730.6
323.14 K, 29368 kPa	730.6
323.14 K, 29415 kPa	730.5
323.14 K, 29637 kPa	730.8
323.14 K, 29675 kPa	730.8
323.14 K, 29724 kPa	730.9
323.14 K, 29765 kPa	730.8
323.14 K, 29800 kPa	730.9
323.14 K, 29840 kPa	731
323.14 K, 29872 kPa	731
323.14 K, 29908 kPa	730.9
323.14 K, 29935 kPa	731
323.14 K, 29962 kPa	730.9
323.14 K, 29999 kPa	731.1
323.14 K, 30026 kPa	731
323.14 K, 30054 kPa	731.1
323.14 K, 30082 kPa	731.1
323.14 K, 30114 kPa	731.1
323.14 K, 30147 kPa	731.1
323.14 K, 30180 kPa	731.2
323.14 K, 30217 kPa	731.1
323.14 K, 30240 kPa	731.2
323.14 K, 30273 kPa	731.2
323.14 K, 30306 kPa	731.2
323.14 K, 30353 kPa	731.3
323.14 K, 30381 kPa	731.3
323.14 K, 30409 kPa	731.3
323.14 K, 30447 kPa	731.3
323.14 K, 30475 kPa	731.3
323.14 K, 30513 kPa	731.3
323.14 K, 30547 kPa	731.4
323.14 K, 30586 kPa	731.4
323.14 K, 30624 kPa	731.4
323.14 K, 30652 kPa	731.6
323.14 K, 30686 kPa	731.6
323.14 K, 30720 kPa	731.5
323.14 K, 30753 kPa	731.7
323.14 K, 30787 kPa	731.5
323.14 K, 30816 kPa	731.5
323.14 K, 30851 kPa	731.7
323.14 K, 30890 kPa	731.5
323.14 K, 30919 kPa	731.6
323.14 K, 30964 kPa	731.6
323.14 K, 30993 kPa	731.6
323.14 K, 31028 kPa	731.6
323.14 K, 31068 kPa	731.8
323.14 K, 31097 kPa	731.8
323.14 K, 31257 kPa	731.9
323.14 K, 31307 kPa	732
323.14 K, 31343 kPa	731.9
323.14 K, 31374 kPa	732
323.14 K, 31421 kPa	732.1
323.14 K, 31463 kPa	732
323.14 K, 31495 kPa	732.1
323.14 K, 31537 kPa	732.1
323.14 K, 31569 kPa	732
323.14 K, 31606 kPa	732.1
323.14 K, 31636 kPa	732.2
323.14 K, 31661 kPa	732.2
323.14 K, 31690 kPa	732.1
323.14 K, 31715 kPa	732.2
323.14 K, 31736 kPa	732.2
323.14 K, 31774 kPa	732.2
323.14 K, 31812 kPa	732.3
323.14 K, 31838 kPa	732.2
323.14 K, 31872 kPa	732.3
323.14 K, 31911 kPa	732.5
323.14 K, 31949 kPa	732.3
323.14 K, 31979 kPa	732.3
323.14 K, 32017 kPa	732.4
323.14 K, 32056 kPa	732.4
323.14 K, 32082 kPa	732.5
323.14 K, 32116 kPa	732.5
323.14 K, 32143 kPa	732.5
323.14 K, 32175 kPa	732.5
323.14 K, 32205 kPa	732.5
323.14 K, 32236 kPa	732.4
323.14 K, 32266 kPa	732.6
323.14 K, 32305 kPa	732.5
323.14 K, 32332 kPa	732.6
323.14 K, 32363 kPa	732.6
323.14 K, 32403 kPa	732.7
323.14 K, 32438 kPa	732.7
323.14 K, 32465 kPa	732.8
323.14 K, 32522 kPa	732.8
323.14 K, 32717 kPa	732.9
323.14 K, 32817 kPa	733
323.14 K, 32841 kPa	733
323.14 K, 32902 kPa	733
323.14 K, 32934 kPa	733.1
323.14 K, 32966 kPa	732.9
323.14 K, 32994 kPa	733.1
323.14 K, 33023 kPa	733
323.14 K, 33048 kPa	733
323.14 K, 33069 kPa	733.1
323.14 K, 33090 kPa	733.2
323.14 K, 33114 kPa	733.2
323.14 K, 33147 kPa	733.2
323.14 K, 33173 kPa	733.2
323.14 K, 33193 kPa	733.3
323.14 K, 33219 kPa	733.3
323.14 K, 33249 kPa	733.2
323.14 K, 33274 kPa	733.3
323.14 K, 33300 kPa	733.3
323.14 K, 33334 kPa	733.3
323.14 K, 33356 kPa	733.2
323.14 K, 33387 kPa	733.4
323.14 K, 33504 kPa	733.4
323.14 K, 33553 kPa	733.5
323.14 K, 33615 kPa	733.5
323.14 K, 33644 kPa	733.5
323.14 K, 33671 kPa	733.6
323.14 K, 33690 kPa	733.5
323.14 K, 33720 kPa	733.5
323.14 K, 33749 kPa	733.6
323.14 K, 33775 kPa	733.6
323.14 K, 33801 kPa	733.6
323.14 K, 33824 kPa	733.6
323.14 K, 33858 kPa	733.7
323.14 K, 33895 kPa	733.7
323.14 K, 33921 kPa	733.8
323.14 K, 33948 kPa	733.7
323.14 K, 33971 kPa	733.8
323.14 K, 34266 kPa	733.9
323.14 K, 34292 kPa	734
323.14 K, 34329 kPa	733.9
323.14 K, 34363 kPa	733.9
323.15 K, 688 kPa	707.4
323.15 K, 762 kPa	707.5
323.15 K, 781 kPa	707.5
323.15 K, 802 kPa	707.6
323.15 K, 828 kPa	707.5
323.15 K, 851 kPa	707.6
323.15 K, 875 kPa	707.7
323.15 K, 894 kPa	707.6
323.15 K, 924 kPa	707.7
